Results on 17 compounds are retold here after paper PMC6692079 (Journal of medicinal chemistry, 2018).

By half-life is commonly meant the time in which the quantity being followed falls by half.

Molecules are shown by their SMILES. Entries after “also recorded” stand apart in the source; their conditions may differ. Structures can show the parent of a compound that is named as a salt. Where two headings read alike, the source gives them in different places.

For data set [1], the target named is T1, human δ opioid receptor (Homo sapiens, UniProt P41143). Put plainly: biochemical.
The target in data set [2] is T2, human κ opioid receptor (Homo sapiens, UniProt P41145). Put plainly: biochemical. It counts as biochemical. The settings on record: for δ/κ: selectivity for κ relative to δ.
The target of data set [3] is T2, human κ opioid receptor. The settings on record: cloned human receptor, cited from earlier work.
Data set [4] concerns the target T1, human δ opioid receptor. The settings on record: cloned human receptor, cited from earlier work.
Data set [5] concerns the target T3, human μ opioid receptor (Homo sapiens, UniProt P35372). Put plainly: biochemical.
A short description of data set [6]: Pharmacokinetics in plasma and brain after a single sc dose. Format: in vivo, Male Sprague—Dawley rats. The settings on record: 5 mg/kg sc.
Data set [7] deals with T3, human μ opioid receptor. The note with it: cloned human receptor; cited from earlier work.
For data set [8] the following is noted: 5 mg/kg in male rats, cited from earlier work.

T1 sequence (P41143 whole entry): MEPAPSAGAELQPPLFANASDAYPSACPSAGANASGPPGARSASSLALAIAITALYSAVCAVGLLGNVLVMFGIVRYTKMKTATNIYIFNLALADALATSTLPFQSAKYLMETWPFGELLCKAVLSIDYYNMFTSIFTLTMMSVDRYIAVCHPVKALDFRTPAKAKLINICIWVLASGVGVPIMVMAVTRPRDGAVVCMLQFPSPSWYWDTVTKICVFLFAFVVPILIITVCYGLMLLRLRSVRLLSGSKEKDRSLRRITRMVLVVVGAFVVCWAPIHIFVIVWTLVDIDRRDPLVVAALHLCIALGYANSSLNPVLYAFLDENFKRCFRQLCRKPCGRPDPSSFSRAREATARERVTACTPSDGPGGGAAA
T3 sequence (P35372 whole entry): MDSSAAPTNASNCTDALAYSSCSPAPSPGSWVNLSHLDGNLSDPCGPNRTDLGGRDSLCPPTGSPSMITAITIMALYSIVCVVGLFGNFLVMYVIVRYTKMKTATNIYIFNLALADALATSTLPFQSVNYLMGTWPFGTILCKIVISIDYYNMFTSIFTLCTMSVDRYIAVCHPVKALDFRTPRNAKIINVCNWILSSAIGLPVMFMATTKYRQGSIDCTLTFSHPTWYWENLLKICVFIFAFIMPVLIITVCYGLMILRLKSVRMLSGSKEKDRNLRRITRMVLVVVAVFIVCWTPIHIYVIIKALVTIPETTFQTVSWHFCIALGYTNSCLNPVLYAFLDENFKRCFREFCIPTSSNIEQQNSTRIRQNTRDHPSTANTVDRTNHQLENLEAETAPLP
T2 sequence (P41145 whole entry): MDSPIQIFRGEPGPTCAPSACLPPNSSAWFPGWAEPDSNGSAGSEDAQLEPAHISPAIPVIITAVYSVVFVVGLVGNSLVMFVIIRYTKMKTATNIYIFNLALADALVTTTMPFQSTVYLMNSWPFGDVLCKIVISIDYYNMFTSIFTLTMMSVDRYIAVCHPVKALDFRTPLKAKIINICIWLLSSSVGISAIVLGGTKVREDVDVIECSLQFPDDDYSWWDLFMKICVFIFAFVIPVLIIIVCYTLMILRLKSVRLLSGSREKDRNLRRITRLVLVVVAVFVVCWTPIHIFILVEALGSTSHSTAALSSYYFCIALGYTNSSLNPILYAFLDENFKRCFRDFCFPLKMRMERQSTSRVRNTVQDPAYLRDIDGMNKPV

In the case of `CC(C)[C@@H](CN1CCCCC1C)NC(=O)[C@H]1Cc2ccc(O)cc2CN1` (mixture of isomers) [Compound 14, (3R)-7-Hydroxy-N-{(1S)-2-methyl-1-[((2RS)-2-methylpiperidin-1-yl)methyl]propyl}−1,2,3,4-tetrahydroisoquinoline-3-carboxamide Dihydrochloride], the Kb in data set [1] was over 3 µM. Besides, in data set [2] (ratio of Ke values), the δ/κ was over 199.

On to `CC(C)[C@@H](CN1CCCCC1)NC(=O)[C@H]1Cc2ccc(O)cc2CN1` [Compound 1, (3R)‑7-Hydroxy‑N‑[(1S)‑2-methyl-1-(piperidin-1-ylmethyl)propyl]-1,2,3,4-tetrahydroisoquinoline-3-carboxamide], for which, in data set [3] (previously reported), the “Ke κ, U69,593” value is listed as 6.80 ± 2.1 nM. Also, in data set [4] (previously reported), the “Ke δ, DPDPE” value is reported as over 3000 nM.

For the compound `CC(C)[C@@H](CN1CCOCC1)NC(=O)[C@H]1Cc2ccc(O)cc2CN1` [Compound 6, (3R)-7-Hydroxy-N-[(1S)-2-methyl-1-(morpholin-4-ylmethyl)-propyl]-1,2,3,4-tetrahydroisoquinoline-3-carboxamide Dihydrochloride], the Kb in data set [1] was over 3 µM.

Compound `CC(C)[C@@H](CN1CCN(C)CC1)NC(=O)[C@H]1Cc2ccc(O)cc2CN1` [Compound 7, (3R)-7-Hydroxy-N-{(1S)-2-methyl-1-[(4-methylpiperizin-1-yl)-methyl]propyl}−1,2,3,4-tetrahydroisoquinoline-3-carboxamide Trihydrochloride] displayed a Kb in data set [1] of over 3 µM. Further, the δ/κ in data set [2] (ratio of Ke values) is over 30.

For the compound `CCN(CC)C[C@@H](NC(=O)[C@H]1Cc2ccc(O)cc2CN1)C(C)C` [Compound 8, (3R)-N-{(1S)-1-[(4,4-Diethylamino)methyl]-2-methylpropyl]-7-hydroxy-1,2,3,4-tetrahydroisoquinoline-3-carboxamide Dihydrochloride], the Kb was over 3 µM in data set [1], 0.69 ± 0.11 µM in data set [5] and 0.0418 ± 0.012 µM in data set [2]. Moreover, the δ/κ in data set [2] (ratio of Ke values) was over 72.

In turn, `CC(C)CN(CC(C)C)C[C@@H](NC(=O)[C@H]1Cc2ccc(O)cc2CN1)C(C)C` [Compound 10, (3R)-N-{(1S)-1-{[Bis(2-methylpropyl)amino]methyl}−2-methyl-propyl]-7-hydroxy-1,2,3,4-tetrahydroisoquinoline-3-carboxamide Dihydrochloride] displayed a Kb in data set [1] of over 3 µM.

`CC1CCN(C[C@@H](NC(=O)[C@H]2Cc3ccc(O)cc3CN2)C(C)C)CC1` [Compound 12, (3R)-7-Hydroxy-N-{(1S)-2-methyl-1-[(4-methylpiperidin-1-yl)-methyl]propyl}−1,2,3,4-tetrahydroisoquinoline-3-carboxamide Dihydrochloride] displayed a Kb in data set [1] of over 3 µM. For the same compound, the “persistence in plasma and brain post dose” value in data set [6] (last sampling time) was 168 h. This compound registered a clearance in data set [6] (plasma) of 43.75 mL/min/kg. For the same compound, the brain penetration entry in data set [6] (rats, 5 mg/kg) was “does indeed penetrate the brain; also recorded: crossed the blood—brain barrier; also recorded: did indeed readily penetrate the brain”.

`CC(C)[C@@H](CN1CCC(C)(C)CC1)NC(=O)[C@H]1Cc2ccc(O)cc2CN1` [Compound 18, (3R)-N-{(1S)-1-[(4,4-Dimethylpiperidin-1-yl)methyl]-2-methylpropyl}−7-hydroxy-1,2,3,4-tetrahydroisoquinoline-3-carboxamide Dihydrochloride]: the Kb in data set [2] was determined as 0.00357 ± 0.0015 µM.

In the case of `CC(C)[C@@H](CN1CCC(C(F)(F)F)CC1)NC(=O)[C@H]1Cc2ccc(O)cc2CN1` [Compound 20, (3R)-7-Hydroxy-N-[(1S)-2-methyl-1-{[4-(trifluoromethyl)-piperidin-1-yl]methyl}propyl]-1,2,3,4-tetrahydroisoquinoline-3-carboxamide Dihydrochloride], in data set [1], the Kb is over 3 µM. Moreover, the δ/κ in data set [2] (ratio of Ke values) is over 640.

`COC1CCN(C[C@@H](NC(=O)[C@H]2Cc3ccc(O)cc3CN2)C(C)C)CC1` [Compound 22, (3R)-7-Hydroxy-N-{(1S)-2-methyl-1-[(4-methoxypiperidin-1-yl)-methyl]propyl}−1,2,3,4-tetrahydroisoquinoline-3-carboxamide Dihydrochloride] registered a Kb in data set [1] of over 3 µM. Further, the δ/κ in data set [2] (ratio of Ke values) was over 459.

In data set [1], `CC(C)[C@@H](CN1CCC(N(C)C)CC1)NC(=O)[C@H]1Cc2ccc(O)cc2CN1` [Compound 23, (3R)-N-[(1S)-1-{[4-(Dimethylamino)piperidin-1-yl]methyl}−2-methylpropyl]-7-hydroxy-1,2,3,4-tetrahydroisoquinoline-3-carboxamide Trihydrochloride] came in with a Kb of over 3 µM. The δ/κ in data set [2] (ratio of Ke values) is reported as over 371.

The compound `CC(C)[C@@H](CN1CCC(F)(F)CC1)NC(=O)[C@H]1Cc2ccc(O)cc2CN1` [Compound 24, (3R)-N-{[(1S)-1-[4,4-Difluoropiperidin-1-yl]methyl]-2-methyl-propyl}−7-hydroxy-1,2,3,4-tetrahydroisoquinoline-3-carboxamide Dihydrochloride] had a Kb in data set [1] of over 3 µM. Also, the δ/κ in data set [2] (ratio of Ke values) is recorded as over 254.

Compound `CC(C)[C@@H](CN1CCC(C#N)CC1)NC(=O)[C@H]1Cc2ccc(O)cc2CN1` [Compound 25, (3R)-N-{(1S)-1-[(4-Cyanopiperidin-1-yl)methyl]-2-methylprolyl}−7-hydroxy-1,2,3,4-tetrahydroisoquinoline-3-carboxamide Dihydrochloride] yielded a Kb in data set [1] of over 3 µM. For the same compound, the δ/κ in data set [2] (ratio of Ke values) is reported as over 236.

`CC(C)[C@@H](CN1CCC(C(N)=O)CC1)NC(=O)[C@H]1Cc2ccc(O)cc2CN1` [Compound 26] came in with a Kb in data set [1] of over 3 µM. The δ/κ in data set [2] (ratio of Ke values) is over 932.

As for `CC1CCN(C[C@@H](NC(=O)[C@H](N)Cc2ccc(O)cc2)C(C)C)CC1` [Compound 36, N-{(1S)-2-Methyl-1-[(4-methylpiperidin-1-yl)methyl]propyl}-D-ty-rosinamide Dihydrochloride], the Kb was over 3 µM in data set [1], over 3 µM in data set [5] and 0.387 ± 0.089 µM in data set [2]. In data set [2], the “fold loss in κ opioid receptor antagonist potency relative to 12” value is reported as “over 1000”. For the same compound, in data set [2] (ratio of Ke values), the δ/κ is listed as over 8. The μ/κ in data set [2] (ratio of Ke values, selectivity for κ relative to μ) is over 8.

For `CC(C)[C@@H](CN1CC[C@@](C)(c2cccc(O)c2)[C@@H](C)C1)NC(=O)[C@H]1Cc2ccc(O)cc2CN1C` [Compound 46, reference compound], the “Ke κ, U69,593” value in data set [3] is recorded as 0.16 ± 0.06 nM. In addition, the “Ke μ, DAMGO” value in data set [7] is on record as 210 ± 60 nM. In addition, the “Ke δ, DPDPE” value in data set [4] is recorded as 491 ± 120 nM.

In the case of `CC(C)[C@@H](CN1CC[C@@](C)(c2cccc(O)c2)[C@@H](C)C1)NC(=O)[C@H]1Cc2ccc(O)cc2CN1` [JDTic, (3R)-1,2,3,4-tetrahydro-7-hydroxy-N-[(1S)-1-[[(3R,4R)-4-(3-hydroxy-phenyl)-3,4-dimethyl-1-piperidinyl]methyl]-2-methylpropyl]-3-iso-quinolinecarboxamide], the half-life in data set [8] (brain) is reported as 51.8 h; in data set [8] (plasma) it was 28.4 h.
